The subject of one assay is GM12878 cells. Put plainly: Hi-Culfite on GM12878 cells treated with 5-azacytidine (methylation inhibition experiment). The assay is classed as cell-based, human. The following applies: for CpG C->T conversion: DMSO control 45.37%. From the text: (§1) Hi-Culfite library construction (FIG. 1A) followed the initial steps of an in situ Hi-C protocol (8). One million cells were crosslinked with formaldehyde; chromatin was digested with a restriction enzyme; and the overhangs were filled in, incorporating a biotinylated nucleotide to mark the fragment ends after ligation. The DNA was then purified and sheared. Next, Applicants performed bisulfite conversion, which converted unmethylated cytosine residues into uracil but left methylated cytosine residues intact. Applicants captured the resulting single-stranded, biotin-marked ligation products on streptavidin beads. Finally, Applicants added adapters to the 3′ end, synthesized the second strand by primer extension, ligated adapters to the 3′ end of the 2nd strand, and PCR amplified with indexed primers.
(§2) Cell Culture: All commercial cell lines were cultured following vendors' recommendations to about 80% confluency before they were harvested and cross-linked in fresh complete medium. For methylation inhibition experiments, cultures of GM12878 (Coriell Institute) and Hap1 (Horizon) were grown for 8 days in medium supplemented with DMSO without drug or with 1 μM or 5 μM 5-azacytidine (Sigma Aldrich) solubilized in DMSO, refreshing the medium/drug every two days.
(§3) Library Construction: Hi-C libraries were prepared using the protocol described (8) Briefly, one million cells were crosslinked with 1% formaldehyde for 10 minutes at room temperature and then quenched with 0.2 M glycine solution. Cells were lysed and nuclei permeabilized with 0.5% SDS for 10 minutes at 62° C. Chromatin was digested with 100 U of MboI restriction enzyme (NEB). Ends of the restriction fragments were filled-in and labeled with a biotinylated nucleotide and then ligated. Nuclei were pelleted, proteins were digested with proteinase K, and crosslinks were reversed by heating at 68° C. overnight. DNA was sheared in a Covaris focused ultrasonicator to a length of 300-500 bp. Size-selected DNA was split for processing with two workflows—10% of the material was used for preparation of a regular Hi-C library (unconverted control) and 90% of the DNA was used for Hi-Culfite library construction. Hi-C libraries were finished by enriching for biotinylated ligation junctions through binding to T1 streptavidin beads (Thermo Fisher) and preparing the library for Illumina sequencing performing the end-repair, A-tailing and adapter ligation steps with DNA attached to the beads. Libraries were amplified directly off the beads and purified for subsequent Illumina sequencing.
(§4) DNA for Hi-Culfite was first treated with sodium bisulfite using EpiTect Fast bisulfite conversion kit (Qiagen) following the kit's instructions and extending each of the two 60° C. conversion incubations to 20 minutes. Converted DNA was purified without addition of an RNA carrier to the binding buffer. Biotinylated ligation junctions in purified bisulfite-converted DNA were captured on 15 μl C1 streptavidin beads (Thermo Fisher) in denaturing binding buffer (10 mM Tris pH 7.5; 5 mM EDTA; 500 mM LiCl; 0.5% Igepal CA630; 0.2% SDS; 4 M Urea) for 10 minutes at 55° C. DNA was washed twice with binding buffer at 55° C. and once with 10 mM Tris. Beads were resuspended in 15 μl of 10 mM Tris, and libraries were detached from the beads by heating for 5 minutes at 95° C. After separating on a magnet, library construction for Illumina sequencing was performed on the supernatant containing ssDNA library using Accel-NGS Methyl-Seq kit (Swift Biosciences) following the kit's manual.
Methylation Track Generation with MethylDackel: Duplicate Hi-C contacts were marked as duplicates in the methylation BAM. Applicants then called the program Methyl Dackel extract with the flag “-F 1024”; this ignored duplicates reads but kept all other mapped reads with MAPQ ≥10. MethylDackel generated CpG methylation tracks, a cytosine coverage report, and an input file for the analysis program MethylKit26. […]

The test system of another assay is Hap1 cells. The assay is described as follows: Hi-Culfite on Hap1 cells treated with 5-azacytidine (methylation inhibition experiment). The assay is classed as cell-based. The following applies: for CpG C->T conversion: DMSO control 37.66%.
Text: as §1, §2, §3
as §4, with “Beads were resuspended in 15 μl of 10 mM Tris, and libraries were detached from the beads by heating for 5 minutes at 95° C. After separating on a magnet, library construction for Illumina sequencing was performed on the supernatant containing ssDNA library using Accel-NGS Methyl-Seq kit (Swift Biosciences) following the kit's manual.” left out
Methylation Track Generation with MethylDackel: Duplicate Hi-C contacts were marked as duplicates in the methylation BAM. Applicants then called the program Methyl Dackel extract with the flag “-F 1024”; this ignored duplicates reads but kept all other mapped reads with MAPQ ≥10. […]

Entries after “also recorded” stand apart in the source; their conditions may differ.

The source of these data is US20220251640A1, “METHODS OF DETERMINATION OF GENOME ARCHITECTURE AND EPIGENETIC PROFILE” (THE BROAD INSTITUTE, INC., priority 2019, published 2022).

Consider `Nc1ncn([C@@H]2O[C@H](CO)[C@@H](O)[C@H]2O)c(=O)n1` [5-azacytidine], for which the “CpG C->T conversion” value with GM12878 cells (GM12878, 1 μM 5-azacytidine in DMSO, 8 days) is listed as 69.46%; in the assay on GM12878 cells (GM12878, 5 μM 5-azacytidine in DMSO, 8 days), 75.08%; with Hap1 cells (Hap-1, 1 μM 5-azacytidine in DMSO, 8 days) it was 86.16%; in the assay on Hap1 cells (Hap-1, 5 μM 5-azacytidine in DMSO, 8 days), 85.79%. Also, the “impact on nuclear architecture / chromosome-level nuclear organization (contact maps, eigenvectors)” value in the assay with GM12878 cells (GM12878, 1 uM and 5 uM, 8 days, vs DMSO) is “did not discern an impact on nuclear architecture; also recorded: no effect on chromosome-level nuclear organization”; in the assay on Hap1 cells (Hap1, 1 uM and 5 uM, 8 days, vs DMSO), “did not discern an impact on nuclear architecture; also recorded: no effect on chromosome-level nuclear organization”. The “looping signal by Aggregate Peak Analysis” value in the assay on GM12878 cells (GM12878, increasing 5-azacytidine concentration) was “no significant changes in looping signal”; with Hap1 cells (HapI, increasing 5-azacytidine concentration), “no significant changes in looping signal”. The “genome-wide decline of methylation (on average)” value with GM12878 cells (GM12878 treated with 5-azacytidine, average stated jointly for GM12878 and HapI) was 2 fold; in the assay with Hap1 cells (HapI treated with 5-azacytidine, average stated jointly for GM12878 and HapI), 2 fold. Further, the “nucleosome occupancy and directional methylation asymmetry at CTCF motifs (aggregate methylation analysis)” value in the assay on GM12878 cells (increasing concentration of 5-azacytidine, GM12878 CTCF motifs) was “no changes to nucleosome occupancy and directional methylation asymmetry”.
